# Patent publication US7842488B2, “Polynucleotides encoding a human 3-phosphoinositide- dependent protein kinase” (Medical Research Council, priority 1997, dated 2010)
# T1: GST-PDK1 (Homo sapiens, UniProt O15530)
# T1 construct: Residues 52-556 of PDK1 were expressed in human embryonic kidney 293 cells; made in house; host or cells: human embryonic kidney 293 cells (pEBG2T)
# T1 sequence (O15530 52-556): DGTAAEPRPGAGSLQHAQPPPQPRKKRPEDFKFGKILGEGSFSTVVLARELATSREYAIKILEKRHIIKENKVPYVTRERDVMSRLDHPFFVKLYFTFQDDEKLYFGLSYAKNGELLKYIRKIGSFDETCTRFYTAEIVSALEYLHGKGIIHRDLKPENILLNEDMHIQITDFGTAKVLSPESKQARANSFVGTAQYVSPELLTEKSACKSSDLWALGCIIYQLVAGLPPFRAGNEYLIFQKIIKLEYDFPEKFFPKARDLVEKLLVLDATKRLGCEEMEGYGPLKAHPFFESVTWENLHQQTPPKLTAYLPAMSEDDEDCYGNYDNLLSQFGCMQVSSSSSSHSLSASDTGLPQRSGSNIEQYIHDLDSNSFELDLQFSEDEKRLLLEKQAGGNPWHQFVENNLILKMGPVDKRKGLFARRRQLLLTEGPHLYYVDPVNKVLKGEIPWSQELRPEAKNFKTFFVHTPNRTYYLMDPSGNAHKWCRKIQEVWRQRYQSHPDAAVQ
# B1: Myc-PDK1: Myc-epitope tagged PDK1 transfected into 293 cells (protein)
# chain: T1 sequence (O15530 52-556)
# modifications: left off: small tags and cut ends
# B2: Myc-D223A-PDK1: catalytically inactive mutant of PDK1, Myc-tagged (protein)
# chain: MARTTSQLYDAVPIQSSVVLCSCPSPSMVRTQTESSTPPGIPGGSRQGPAMDGTAAEPRPGAGSLQHAQPPPQPRKKRPEDFKFGKILGEGSFSTVVLARELATSREYAIKILEKRHIIKENKVPYVTRERDVMSRLDHPFFVKLYFTFQDDEKLYFGLSYAKNGELLKYIRKIGSFDETCTRFYTAEIVSALEYLHGKGIIHRDLKPENILLNEDMHIQITAFGTAKVLSPESKQARANSFVGTAQYVSPELLTEKSACKSSDLWALGCIIYQLVAGLPPFRAGNEYLIFQKIIKLEYDFPEKFFPKARDLVEKLLVLDATKRLGCEEMEGYGPLKAHPFFESVTWENLHQQTPPKLTAYLPAMSEDDEDCYGNYDNLLSQFGCMQVSSSSSSHSLSASDTGLPQRSGSNIEQYIHDLDSNSFELDLQFSEDEKRLLLEKQAGGNPWHQFVENNLILKMGPVDKRKGLFARRRQLLLTEGPHLYYVDPVNKVLKGEIPWSQELRPEAKNFKTFFVHTPNRTYYLMDPSGNAHKWCRKIQEVWRQRYQSHPDAAVQ
# modifications: left off: small tags and cut ends
# Tests used:
# PDK1 [1] = assay: PDK1 assay: activation of GST-PKBα by purified PDK1 with phospholipid vesicles; type: biochemical, rabbit; details: lipid 10 μM in vesicles of 100 μM PtdCho, 100 μM PtdSer, 30 min at 30° C.
# Experimental: Assay of PDK1. The assay was carried out in two stages; in the first, GST-PKBα was incubated with PDK1 in the presence of MgATP and phospholipid vesicles to permit activation of GST-PKBα.
# After 10 min at 30° C., the reactions were terminated by spotting the reaction mixture on to p81 phosphocellulose paper. The papers were washed in phosphoric acid and analysed as described previously. […] The basal GST-PKBα activity is the activity measured in the absence of PDK1.
# PDK1 [2] = assay: Phosphorylation of GST-PKBα by PDK1 with [γ32P]ATP; type: biochemical, rabbit; details: lipid 10 μM in PtdCho/PtdSer vesicles
# Experimental: Solutions were stored at 4° C. at concentrations 10-fold higher than those required in the assay and used within 2-4 days.
# Phosphorylation of GST-PKB ? by PDK1. The incubations were identical to the Stage 1 described above except that [γ^32P] ATP (200-400 cpm/pmol) was used instead of unlabelled ATP. The reactions were terminated by making the solution 1% (by mass) in SDS. […] The Coomassie blue-staining bands corresponding to GST-PKBα were excised and the ^32P-radioactivity associated with each band was quantified.
# GST-PDK1 = target: T1, GST-PDK1; assay: GST-PDK1 assay: activation and phosphorylation of GST-PKBα; type: biochemical; details: lipid 10 μM in PtdCho/PtdSer vesicles
# Experimental: (§1) FIG. 12. […] In panels A and C, the assays were terminated by making the incubations 1% (by vol) in TRITON X-100™ (see Ref 21), and the increase in specific activity of GST-PKBα was determined. In panels B and D, the reactions were terminated by making the solutions 1% in SDS, the samples were subjected to SDS/polyacrylamide gel electrophoresis, and the phosphorylation was assessed by autoradiography of the Coomassie blue-stained band corresponding to GST-PKBα.
# (§2) One unit of PDK1 activity was defined as that amount required to increase the basal activity of GST-PKBα by 1 unit of activity in one min.
# GST-DSTPK61 = target: T2, GST-DSTPK61 (Drosophila melanogaster, UniProt Q9W0V1); assay: GST-DSTPK61 assay: activation and phosphorylation of GST-PKBα; type: biochemical; details: lipid 10 μM in PtdCho/PtdSer vesicles
# T2 construct: residues 1-752 of DSTPK61 in E. coli as fusion proteins; made in house; host or cells: E. coli (pGEX-3X)
# Experimental: as §1, §2
# HA-PKBα [3] = assay: HA-PKBα activity in transfected 293 cells; type: cell-based, human
# Experimental: FIG. 14. PKBα is activated by cotransfection with PDK1 in 293 cells. (A) 293 cells were transiently transfected with DNA constructs expressing either HA-PKBα or both HA-PKBα and Myc-PDK1. The cells were then stimulated for 10 min with or without 50 ng/ml IGF1, the HA-PKBα immunoprecipitated from the lysates and assayed. The results are expressed relative to the specific activity of wild type HA-PKBα in unstimulated 293 cells ([…]). No PKBα activity was detected in mock transfections in which the cells were transfected with PCMV5 vector alone (data not shown). (B) 6 μg of protein from each lysate was electrophoresed on a 10% SDS/polyacrylamide gel and immunoblotted using either a monoclonal HA-antibody to detect HA-PKBα or a monoclonal Myc-antibody to detect Myc-PDK1. The molecular mass markers are glycogen phosphorylase (97 kDa), bovine serum albumin (67 kDa) and ovalbumin (43 kDa).
# Transfection of 293 cells with HA-tagged PBKα and Myc-PDK1. Human embryonic kidney 293 cells were cultured on 10 cm diameter dishes and transfected with 2 μg/ml pCMV5 DNA constructs encoding for HA-PKBα or HA-PKBα plus Myc-PDK1 [20]. After 24 h the cells were deprived of serum for a further 16 h and then stimulated for 10 min with either […] IGF1 or Buffer. The cells were lysed in 1.0 ml of ice-cold Buffer A, the lysate centrifuged at 4° C. for 10 min at 13,000×g and HA-PKBα immunoprecipitated from aliquots of the supernatant (10 μg protein) and assayed for PKBα with the peptide RPRAATF (SEQ ID NO: 9) as described previously.
# HA-PKBα [4] = assay: 32P-labelling of transfected 293 cells: phosphorylation sites of HA-PKBα; type: cell-based, human; details: unstimulated 293 cells
# Experimental: FIG. 15. Overexpression of PDK1 in cells induces phosphorylation of PKBα at Thr308. 293 cells transiently transfected with either wild type HA-PKBα (panels A and C) or HA-PKBα and Myc-PDK1 (panels B and D) were incubated with ^32P-orthophosphate, then treated for 10 min without (panels A and B) or with (panels C and D) 50 ng/ml IGF1. The ^32P-labelled HA-PKBα was immunoprecipitated from the lysates, treated with 4-vinylpyridine, and electrophoresed on 1 10% polyacrylamide gel. The HA-PKBα was excised from the gel, digested with trypsin and chromatographed on a C18 column (see legend to FIG. 13) to resolve the four major phosphopeptides which are phosphorylated at Ser-124, Ser473, Thr308 and Thr450 respectively. The identity of each phosphopeptide was established by phospho-amino acid analysis and solid phase sequencing. Similar results were obtained in two separate experiments for (panels A and C), and in three separate experiments (panels B and D).
# ^32P-labelling of 293 cells transfected with HA-PKBα or Myc-PDK1. This was carried out essentially as described previously. Briefly, 293 cells were transfected with HA-PKBα, or with HA-PKBα plus Myc-PDK1, washed with phosphate free DMEM, incubated for 4 h with [^32P]-orthophosphate (1 mCi/ml), then stimulated with IGF1 (50 ng/ml) for 5 min. The cells were lysed, and the HA-PKBα immunoprecipitated (using 10 μg of 12CAS antibody per 10 cm dish of cells) or the Myc-PDK1 immunoprecipitated (using 10 μg of 9E10 antibody per 10 cm dish of cells). The immunoprecipitated protein was alkylated with 4-vinylpyridine, subjected to SDS/polyacrylamide gel electrophoresis, digested with trypsin and analysed by chromatography on a C18 column (Alessi et al (1996) EMBO J. 15, 6541-6551).
# T2 sequence (Q9W0V1 85-836 Q200H/Q201E/Q317A/G443R): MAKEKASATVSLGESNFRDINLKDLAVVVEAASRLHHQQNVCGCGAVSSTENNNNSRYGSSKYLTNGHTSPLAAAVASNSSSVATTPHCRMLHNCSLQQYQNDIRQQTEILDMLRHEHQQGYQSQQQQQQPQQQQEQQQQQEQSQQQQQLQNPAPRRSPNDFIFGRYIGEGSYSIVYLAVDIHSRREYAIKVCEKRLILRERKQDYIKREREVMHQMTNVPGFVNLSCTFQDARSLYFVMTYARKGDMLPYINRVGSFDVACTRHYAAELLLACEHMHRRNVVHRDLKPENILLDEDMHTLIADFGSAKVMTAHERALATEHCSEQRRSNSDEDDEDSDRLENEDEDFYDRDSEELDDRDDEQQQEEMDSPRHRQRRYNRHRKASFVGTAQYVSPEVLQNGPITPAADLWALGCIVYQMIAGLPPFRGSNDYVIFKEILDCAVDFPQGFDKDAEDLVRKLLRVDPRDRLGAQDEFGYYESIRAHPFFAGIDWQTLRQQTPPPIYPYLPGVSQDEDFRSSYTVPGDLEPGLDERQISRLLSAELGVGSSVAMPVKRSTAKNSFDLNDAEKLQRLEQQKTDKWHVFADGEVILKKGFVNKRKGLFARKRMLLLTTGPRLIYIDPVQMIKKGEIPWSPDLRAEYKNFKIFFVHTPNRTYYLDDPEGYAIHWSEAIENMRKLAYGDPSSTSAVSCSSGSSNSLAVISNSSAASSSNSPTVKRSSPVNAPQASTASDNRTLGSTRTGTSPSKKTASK
molecule,measurement,setting,value
"CCCCCCCCCCCCCCCC(=O)OC[C@H](COP(=O)(O)OC1C(O)C(O)C(O)C(OP(=O)(O)O)C1O)OC(=O)CCCCCCCCCCCCCCC (stereo partly shown) [Lipid 11, sn-1,2 di-palmitoyl PtdIns-3P]",activation of PDK1 (in words),PDK1 [1],no significant activation
same,activation of PDK1 (in words),PDK1 [1]; listed as PtdIns(3)P,did not activate PDK1 at all
same,activation of PDK1 (in words),PDK1 [1]; listed as lipid 11,did not activate PDK1
same,phosphorylation of GST-PKBα by PDK1 (in words),PDK1 [2],did not activate PDK1 or induce the phosphorylation
same,activation and phosphorylation of GST-PKBα by GST-PDK1 (in words),GST-PDK1,no activation or phosphorylation
same,activation and phosphorylation of GST-PKBα by GST-DSTPK61 (in words),GST-DSTPK61,no activation or phosphorylation
B1,fold increase of HA-PKBα activity on cotransfection,HA-PKBα [3]; unstimulated 293 cells,20 fold
same,phosphorylation of HA-PKBα at Thr308 relative to IGF1-stimulated cells transfected with HA-PKBα alone,HA-PKBα [4]; cotransfection,70%
same,phosphorylation of HA-PKBα at Ser473 on cotransfection (in words),HA-PKBα [4],did not induce phosphorylation of HA-PKBα at Ser473
B2,activation of HA-PKBα on cotransfection (in words),HA-PKBα [3]; 293 cells,not activated significantly
